Assay results: patent US20040248914A1, “Method for the treatment of overactive bladder” (priority 2001, published 2004)
Values joined by “and” are separate entries in the source; they are usually repeats but may differ in a detail not shown here. Identical values can stand only once.

Tests used:
[1] = target: T1, human NK2 receptors (Homo sapiens, UniProt P21452); assay: In vitro receptor binding assay, [3H]NKA in MEL cell membranes expressing cloned human NK2 receptors; settings: inhibition of [3H]NKA binding to cloned hNK2 receptors in MEL cell membranes; read-out: hNK2 (Ki expressed as -Log Molar) (converted)
T1 construct: expressed in transfected cells; host or cells: MEL cells (membranes)
T1 sequence (P21452 1-398): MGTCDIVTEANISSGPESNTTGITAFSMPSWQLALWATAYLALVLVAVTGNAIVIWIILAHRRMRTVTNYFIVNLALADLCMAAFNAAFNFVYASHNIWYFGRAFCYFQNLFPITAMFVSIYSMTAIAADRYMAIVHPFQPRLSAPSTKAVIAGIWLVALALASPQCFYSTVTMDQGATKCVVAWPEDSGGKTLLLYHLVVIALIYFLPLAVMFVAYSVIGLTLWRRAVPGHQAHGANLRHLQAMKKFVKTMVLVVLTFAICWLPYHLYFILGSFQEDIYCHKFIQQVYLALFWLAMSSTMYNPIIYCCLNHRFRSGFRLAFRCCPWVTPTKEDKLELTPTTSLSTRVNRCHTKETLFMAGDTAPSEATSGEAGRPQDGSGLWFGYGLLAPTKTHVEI
Method: (§1) Preparation of Membranes from MEL Cells Transfected with Cloned Human NK1 or NK2 Receptors:
(§2) The cloning of the human lung NK1 and NK2 receptors was achieved as described by Hopkins, et al., Biochem. Biophys. Res. Commun. 180: 1110-1117 (1991), and Graham, et al., Biochem. Biophys. Res. Commun. 177: 8-16 (199.1). Heterologous expression and scale-up growth of MEL cells transfected with human tachykinin receptors was performed as described for NK2 receptors by Aharony, et al., Mol. Pharmacol. 45: 9-19, 1994.
(§3) Membranes from recombinant MEL cells expressing NK1 or NK2 receptors were prepared as described by Hopkins, et al., (1991). Briefly, cells were homogenized at 4° C. (Brinkman PT-20 Polytron, setting 3, with one 15 sec burst on ice), in a buffer consisting of 50 mM Tris-HCl (pH7.4), 5 mM KCl, 120 mM NaCl, 10 mM EDTA and containing several protease inhibitors (1 mM phenylmethylsulfonylfluoride; 0.1 mg/ml soybean trypsin inhibitor, and 1 mM iodoacetamide). The homogenate was centrifuged at 1200×g for 45 min at 4° C. to remove cell debris. The supernatant was centrifuged at 48,000×g for 45 min at 4° C. The pellet was resuspended with a glass-Teflon motorized homogenizer in 30 volumes of ice-cold 50 mM Tris-HCl (pH 7.4) buffer.
(§4) Ligand binding assays with [^3H]NKA in MEL cells expressing cloned NK2 receptors or (^3H]SP in MEL cells expressing cloned NK1 receptors, were conducted generally as described by Aharony, et al., Mol. Pharmacol. 45: 9-19, 1994, Aharony, et al., Neuropeptides 23: 121-130 (1992) and Aharony, et al., J. Pharmacol. Exp. Ther. 259: 146-155 (1991). In brief, incubations were carried out in assay buffer containing membranes, test compounds, and [^3H] ligand (1.0-1.5 nM). In competition experiments, mixtures (0.315 mL) containing various concentrations of competing agents (agonists, antagonists, or vehicle), were incubated at 25° C. for 30 min., with or without 1 μM unlabeled homogenous ligand (NKA or SP), to define non-specific binding. Reactions were initiated by adding membranes (0.1-0.15 mg protein/final concentration) and were conducted in duplicate. Saturation and kinetic experiments were conducted in triplicate. Separation of receptor-bound and free ligand was accomplished by dilution with 1 mL of wash buffer (20 mM Tris-HCl, pH 7.5) followed immediately by vacuum filtration with a total volume of 10 mL of wash buffer (utilizing a Brandel Cell Harvester MB-48R with Whatman GF/B filters presoaked in 0.1% polyethylenimine).
(§5) The ability of compounds disclosed herein to inhibit the binding of [^3H] ligand is shown by the results disclosed in Table 1.

[2] = target: T2, human NK1 receptors (Homo sapiens, UniProt P25103); assay: In vitro receptor binding assay, [3H]SP in MEL cell membranes expressing cloned human NK1 receptors; settings: for Ki: inhibition of [3H]SP binding to cloned hNK1 receptors in MEL cell membranes, read-out: hNK1 (Ki expressed as -Log Molar) (converted)
T2 construct: expressed in transfected cells; host or cells: MEL cells (membranes)
Method: as §1, §2, §3, §4, §5

[3] = system: BANK-mediated GP bladder contraction; assay: BANK-induced bladder contraction in anesthetized guinea pigs; assay type: in vivo, guinea pig; settings: for Inhibition of BANK-mediated GP bladder contraction (% Inhibition mediated by 52 nmol/kg administered orally): anesthetized female guinea pigs, 52 nmol/kg by gavage 1 hr before BANK, mean ± S.E.M.
Method: BANK-Induced Bladder Contraction in Anesthetized Guinea Pigs:
Female guinea pigs (300-450 g) were anesthetized by intramuscular administration of ketamine/xylazine mixture (3/10 mg/kg, respectively). The jugular vein was catheterized and the distal end of the catheter connected to a syringe for administration of compound where appropriate. Subsequently, the bladder was exposed through a midline abdominal incision, the ureters tied with 4-0 silk suture approximately 2 cm above the bladder, and cut above the ligature to allow drainage from the kidneys. Cannula were passed through the proximal urethra and bladder sphincter into the bladder lumen. The bladder was manually emptied, infused with 0.3 mL saline, and the catheter attached to a Gould p23 ID pressure transducer for recording changes in bladder pressure. An equilibration period of approximately 15 min was allowed for stabilization of the animals following surgical preparation. Thiorphan (10 mg/kg iv) was administered 15 minutes before agonist exposure to inhibit neutral endopeptidase 3.4.24.11.
To establish the oral effect of test compounds, animals were administered the test compounds (52 nmol/kg, 5% PEG 400-saline vehicle) by gavage 1 hr before administration of BANK. Changes in bladder contraction occurring in the presence and absence of test compound were recorded as an increase in intravesical bladder pressure on a Grass 7D Polygraph and expressed as the precentage change in response. Duration of action studies were performed following oral administration of test compounds (52 nmol/kg, 5% PEG 400-saline vehicle) at different times prior to administration of BANK. Responses were calculated as the percentage difference between the response to BANK in the presence of test compound compared with sham-treated controls. For all studies, each animal was administered a single dose of test compound. Experimental results were expressed as the mean plus or minus the Standard Error of the Mean (±S.E.M) percentage change from basal level.
The ability of compounds disclosed herein to inhibit bladder contractions induced with BANK is shown by the results disclosed in Table 1.

T2 sequence (P25103 whole entry): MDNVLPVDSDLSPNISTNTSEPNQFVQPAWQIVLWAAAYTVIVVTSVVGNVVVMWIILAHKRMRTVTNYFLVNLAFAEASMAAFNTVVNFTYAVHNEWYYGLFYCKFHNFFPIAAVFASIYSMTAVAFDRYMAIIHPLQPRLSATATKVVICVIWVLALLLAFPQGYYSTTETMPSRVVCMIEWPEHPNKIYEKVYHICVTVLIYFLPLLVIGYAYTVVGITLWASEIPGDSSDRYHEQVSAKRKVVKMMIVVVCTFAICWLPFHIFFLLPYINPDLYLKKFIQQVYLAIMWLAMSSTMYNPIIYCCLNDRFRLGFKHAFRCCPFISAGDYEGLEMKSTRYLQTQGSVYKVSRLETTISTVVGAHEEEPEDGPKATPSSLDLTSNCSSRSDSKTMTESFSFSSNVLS

Row | Ki [1] [nM] | inhibition at 10 µM ([2]; at 10 μM, [3H]SP binding, cloned hNK1 receptors) [%] | Ki [2] [nM] | Structure (SMILES) | Inhibition of BANK-mediated GP bladder contraction (% Inhibition mediated by 52 nmol/kg administered orally) [3] | Effect on bladder contraction induced by BANK (in words) ([3]; guinea pig, BANK-induced bladder contraction)
1 | 1.41 | – | 66.1 | CCN(C[C@@H](CCN1CCC(N2CCCNC2=O)CC1)c1ccc(Cl)c(Cl)c1)C(=O)c1ccccc1 [Example 3, (S)-N-{2-(3,4-Dichloro-phenyl)-4-[4-(2-oxo-tetrahydro-pyrimidin-1-yl)-piperidin-1-yl]-butyl}-N-ethyl-benzamide free base] | 64% and 64 ± 6% | –
2 | 1.38 | – | 251 | CN(C[C@@H](CCN1CCC(N2CCCNC2=S)CC1)c1ccc(Cl)c(Cl)c1)C(=O)c1ccccc1.Cl.Cl [Example 5, (S)-N-[2-(3,4-Dichlorophenyl)-4-[4-(2-thioxoperhydro-pyrimidin-1-yl)-piperidino]butyl]-N-methylbenzamide dihydrochloride] | −9 ± 39% | increase the bladder contraction induced by BANK

The remaining lines, values behind:

Row | Structure (SMILES) | Ki [1] [nM] | inhibition at 10 µM ([2]; at 10 μM, [3H]SP binding, cloned hNK1 receptors) [%] | Ki [2] [nM] | Inhibition of BANK-mediated GP bladder contraction (% Inhibition mediated by 52 nmol/kg administered orally) [3] | Effect on bladder contraction induced by BANK (in words) ([3]; guinea pig, BANK-induced bladder contraction)
3 | CN(C[C@@H](CCN1CCC(N2CC(C)(C)CNC2=O)CC1)c1ccc(Cl)c(Cl)c1)C(=O)c1ccccc1 [Example 1, (S)-N-[2-(3,4-Dichlorophenyl)-4-[4-(2-oxo-5,5-dimethyl-perhydropyrimidin-1-yl)piperidino]butyl]-N-methylbenzamide] | 0.55 | 90 | – | 27 ± 13% | –
4 | CCN1CCCN(C2CCN(CC[C@H](CN(C)C(=O)c3ccccc3)c3ccc(Cl)c(Cl)c3)CC2)C1=O.O=C(O)CC(O)(CC(=O)O)C(=O)O [Example 2, (S)-N-[2-(3,4-Dichlorophenyl)-4-[4-(3-ethyl-2-oxoperhydro-pyrimidin-1-yl)-piperidino]butyl]-N-methylbenzamide citrate] | 0.245 | – | 112 | 26 ± 16% | –
5 | CN(C[C@@H](CCN1CCC(N2CCCNC2=O)CC1)c1ccc(Cl)c(Cl)c1)C(=O)c1ccc(F)cc1.O=C(O)CC(O)(CC(=O)O)C(=O)O [Example 4, (S)-N-[2-(3,4-Dichlorophenyl)-4-[4-(2-oxoperhydro-pyrimidin-1-yl)piperidino]butyl]-4-fluoro-N-methylbenzamide citrate] | 1.74 | – | 61.7 | 55 ± 11% | –
